In ChEMBL document CHEMBL1201862, “PubChem BioAssay data set” (2004):
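Cultured in 96-well plates, cells were exposed to test compound for 48 hours across five concentrations. Here, GI50 denotes the concentration required for 50% inhibition of growth.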 The source made the active and inactive calls. No stated cut-off is given here; in the data, active = GI50 up to about 1.1 µM and inactive = higher.

Assays:
Assay in all cases: NCI anticancer screen, dose series, 48 h
[1] = tested on: EKVX
[2] = tested on: NCI-H226
[3] = tested on: HT-29
[4] = tested on: CCRF-CEM
[5] = tested on: PC-3
[6] = tested on: NCI/ADR-RES
[7] = tested on: NCI-H460
[8] = tested on: COLO 205
[9] = tested on: SW-620
[10] = tested on: T47D
[11] = tested on: OVCAR-8
[12] = tested on: SK-MEL-2
[13] = tested on: OVCAR-5
[14] = tested on: SF-268
[15] = tested on: DU-145
[16] = tested on: U-251
[17] = tested on: UACC-62
[18] = tested on: A549
[19] = tested on: RXF 393
[20] = tested on: ACHN

Measured: GI50

CC(NC(=O)OCc1ccccc1)NC(=O)C(CC(=O)OC(C)(C)C)NC(=O)OC(C)(C)C (stereo not drawn)
inactive: [1] > 100 µM | [2] > 100 µM | [3] > 100 µM | [4] > 100 µM | [5] > 100 µM | [6] > 100 µM | [7] > 100 µM | [8] > 100 µM | [9] > 100 µM | [10] > 100 µM | [11] > 100 µM | [12] > 100 µM | [13] > 100 µM | [14] 98.4 µM | [15] > 100 µM | [16] > 100 µM | [17] > 100 µM | [18] > 100 µM | [19] > 100 µM | [20] > 100 µM

Cc1ccc(S(=O)(=O)NC(=N)N(C)N=O)cc1
inactive: [1] 85.9 µM | [2] > 100 µM | [3] > 100 µM | [4] > 100 µM | [5] > 100 µM | [6] > 100 µM | [7] 18.9 µM | [8] 28.1 µM | [9] > 100 µM | [10] > 100 µM | [11] > 100 µM | [12] > 100 µM | [13] > 100 µM | [14] > 100 µM | [15] > 100 µM | [16] > 100 µM | [17] 26.4 µM | [18] 19.1 µM | [19] > 100 µM

CC(C)(Sc1cc(C(C)(C)C)c(O)c(C(C)(C)C)c1)Sc1cc(C(C)(C)C)c(O)c(C(C)(C)C)c1 [PROBUCOL]
inactive: [1] 4.57 µM | [3] > 100 µM | [4] > 100 µM | [5] > 100 µM | [6] > 100 µM | [7] > 100 µM | [8] > 100 µM | [9] > 100 µM | [10] > 100 µM | [11] > 100 µM | [12] > 100 µM | [13] > 100 µM | [14] 52.8 µM | [15] > 100 µM | [16] > 100 µM | [17] > 100 µM | [18] > 100 µM | [19] 79.6 µM | [20] > 100 µM

CN(C)C1(N(C)C)Oc2c(c(=O)n(C)c(=O)n2C)C(c2ccc(Br)cc2)C1(F)F (stereo not drawn)
inactive: [1] > 100 µM | [2] > 100 µM | [4] > 100 µM | [5] > 100 µM | [6] > 100 µM | [7] > 100 µM | [8] > 100 µM | [9] > 100 µM | [10] > 100 µM | [12] > 100 µM | [13] > 100 µM | [14] > 100 µM | [15] > 100 µM | [16] > 100 µM | [17] > 100 µM | [18] > 100 µM | [19] > 100 µM | [20] > 100 µM

CCOC(=O)C1C(c2ccccc2)C2(C#N)C(=N)OC1(C)C2(C#N)C#N (stereo not drawn)
inactive: [1] 21.1 µM | [2] 24.3 µM | [3] 16 µM | [4] 23.5 µM | [5] 25.6 µM | [6] 27.1 µM | [8] 16.4 µM | [9] 44.8 µM | [10] 32.1 µM | [11] 24.5 µM | [12] 20.7 µM | [13] 21.7 µM | [14] 22.4 µM | [15] 30.6 µM | [16] 28.7 µM | [17] 27 µM | [18] > 100 µM | [19] 15.8 µM | [20] 20.9 µM

CCOC(=O)c1[nH]c2nc(SC)nc(NC)c2c1N
inactive: [2] 42.8 µM | [3] 47.3 µM | [4] 60 µM | [5] > 100 µM | [6] 59.6 µM | [7] 60.4 µM | [8] > 100 µM | [9] > 100 µM | [10] 83.8 µM | [11] > 100 µM | [12] > 100 µM | [13] > 100 µM | [14] > 100 µM | [15] > 100 µM | [16] > 100 µM | [17] 85.7 µM | [18] > 100 µM | [19] > 100 µM | [20] > 100 µM

CS(=O)(=O)OC1CN2CCC1CC2 (stereo not drawn)
inactive: [1] > 100 µM | [3] > 100 µM | [4] > 100 µM | [5] > 100 µM | [6] > 100 µM | [7] > 100 µM | [8] > 100 µM | [9] > 100 µM | [10] > 100 µM | [11] > 100 µM | [12] > 100 µM | [13] > 100 µM | [14] > 100 µM | [15] > 100 µM | [16] > 100 µM | [17] > 100 µM | [18] > 100 µM | [19] > 100 µM | [20] > 100 µM

COc1cccc(/N=N/C(=N\NC(=O)c2ccc(C)cc2)c2ccc(N(CCC#N)CCC#N)cc2C)c1
inactive: [1] 66.5 µM | [2] > 100 µM | [3] > 100 µM | [5] 64.6 µM | [6] > 100 µM | [7] > 100 µM | [8] > 100 µM | [9] > 100 µM | [10] 41.1 µM | [11] 35.1 µM | [12] > 100 µM | [13] > 100 µM | [14] > 100 µM | [15] > 100 µM | [16] > 100 µM | [18] > 100 µM | [19] 74.5 µM | [20] > 100 µM

CCOP(=O)(OCC)c1ccc(=O)[nH]c1-c1cccs1
inactive: [1] > 100 µM | [2] > 100 µM | [3] > 100 µM | [5] > 100 µM | [6] > 100 µM | [7] > 100 µM | [8] > 100 µM | [9] > 100 µM | [10] > 100 µM | [11] > 100 µM | [12] > 100 µM | [13] > 100 µM | [14] > 100 µM | [15] > 100 µM | [16] > 100 µM | [17] > 100 µM | [18] > 100 µM | [19] > 100 µM | [20] > 100 µM

Cc1ccc(C2=CC(=O)/C(=C\C(=O)c3ccc(Br)cc3)O2)c(C)c1
inactive: [1] 28.6 µM | [2] 10.9 µM | [3] 7.89 µM | [4] 2.69 µM | [5] 5.35 µM | [6] 7.91 µM | [7] 26.5 µM | [8] 3.85 µM | [10] 8.79 µM | [11] 6.58 µM | [12] 49.1 µM | [13] 23.7 µM | [14] 16.2 µM | [15] 30.4 µM | [16] 18 µM | [17] 9.48 µM | [18] 18.7 µM | [19] 4.58 µM | [20] 4.57 µM

Cc1ccc(C)c(N2C(=O)C(=O)c3c(C)ccc(C)c32)c1
inactive: [1] 60.7 µM | [2] 27.7 µM | [3] 20.8 µM | [5] 23 µM | [6] 23.6 µM | [7] 37.2 µM | [8] 34.9 µM | [9] 27.7 µM | [10] 11.6 µM | [11] 23.8 µM | [12] 20.6 µM | [13] 57.1 µM | [14] 23.3 µM | [15] 27.7 µM | [16] 17.2 µM | [17] 16.3 µM | [18] 25.7 µM | [19] 49.7 µM | [20] 17.1 µM

NCCCc1ccc2oc3ccccc3c2c1
inactive: [2] 19.1 µM | [3] 12.6 µM | [4] 11.6 µM | [5] 18.7 µM | [6] 22.3 µM | [7] 17 µM | [8] 17.5 µM | [9] 18.9 µM | [10] 17.7 µM | [11] 22.7 µM | [12] 20.4 µM | [13] 12.7 µM | [14] 19.5 µM | [15] 16.9 µM | [16] 18.7 µM | [17] 17.7 µM | [18] 17.1 µM | [19] 17.9 µM | [20] 17.5 µM

CC1OC(n2cc(F)c(=O)[nH]c2=O)C(O[Si](C)(C)C(C)(C)C)C1O[Si](C)(C)C(C)(C)C (stereo not drawn)
inactive: [1] 16.9 µM | [2] 16.2 µM | [3] 10.8 µM | [4] 16.6 µM | [5] 11 µM | [6] 12.7 µM | [8] 14.4 µM | [9] 15 µM | [10] 10.2 µM | [11] 14.7 µM | [12] 16.3 µM | [13] 15.2 µM | [14] 12 µM | [15] 13.6 µM | [16] 13.9 µM | [17] 14.8 µM | [18] 15.8 µM | [19] 14 µM | [20] 14 µM

O=[N+]([O-])c1ccc2nc3ccccc3cc2c1
inactive: [1] 5.31 µM | [2] 2.45 µM | [3] 2 µM | [5] 1.95 µM | [6] 1.51 µM | [7] 3.03 µM | [8] 3.56 µM | [9] 1.85 µM | [10] 3.63 µM | [11] 1.26 µM | [12] 4.73 µM | [13] 2.48 µM | [14] 6.44 µM | [15] 2.82 µM | [16] 2.69 µM | [17] 1.19 µM | [18] 2.5 µM | [19] 13.8 µM | [20] 3.04 µM

C[C@@]12C[C@@H](c3ccccc3O1)N1CCSC1=N2
inactive: [1] > 100 µM | [2] > 100 µM | [3] > 100 µM | [5] > 100 µM | [6] > 100 µM | [7] > 100 µM | [8] > 100 µM | [9] > 100 µM | [10] > 100 µM | [11] > 100 µM | [12] > 100 µM | [13] > 100 µM | [14] > 100 µM | [15] > 100 µM | [16] > 100 µM | [17] > 100 µM | [19] > 100 µM | [20] > 100 µM
